Results: PubChem BioAssay AID1259407 (Chemical Carcinogenesis Research Information System (CCRIS), 2018)
Activity calls are given as the source filed them. The rule behind the calls is not given here.

Test system: CCRIS mutagenicity, Ames/micronucleus/aberration tests
Test: CCRIS mutagenicity studies
Excerpt: The CCRIS database contains chemical records with carcinogenicity, mutagenicity, tumor promotion, and tumor inhibition test results. It was developed by the National Cancer Institute (NCI). Data are derived from studies cited in primary journals, current awareness tools, NCI reports, and other sources. Test results have been reviewed by experts in carcinogenesis and mutagenesis.
CCRIS provides historical information from the years 1985 - 2011. It is no longer updated.
This is an archive assay for CCRIS mutagenicity studies.

[1] = Test System: AMES SALMONELLA TYPHIMURIUM, Strain/Indicator: TA98, Metabolic Activation: NONE, Method: PREINCUBATION
[2] = Test System: AMES SALMONELLA TYPHIMURIUM, Strain/Indicator: TA100, Metabolic Activation: NONE, Method: PREINCUBATION
[3] = Test System: AMES SALMONELLA TYPHIMURIUM, Strain/Indicator: TA100, Metabolic Activation: NONE, Method: STANDARD PLATE
[4] = Test System: AMES SALMONELLA TYPHIMURIUM, Strain/Indicator: TA98, Metabolic Activation: NONE, Method: STANDARD PLATE
[5] = Test System: AMES SALMONELLA TYPHIMURIUM, Strain/Indicator: TA98, Metabolic Activation: RAT, LIVER, S-9, AROCLOR 1254, Method: STANDARD PLATE
[6] = Test System: AMES SALMONELLA TYPHIMURIUM, Strain/Indicator: TA100, Metabolic Activation: RAT, LIVER, S-9, AROCLOR 1254, Method: STANDARD PLATE

Measured: mutagenic call

Oc1cccc2ncccc12
active: Test System: AMES SALMONELLA TYPHIMURIUM, Strain/Indicator: TA98, Metabolic Activation: RAT, LIVER, S-9, Method: PREINCUBATION active; positive | Test System: AMES SALMONELLA TYPHIMURIUM, Strain/Indicator: TA100, Metabolic Activation: RAT, LIVER, S-9, AROCLOR 1254 (10% OR 20%), Method: STANDARD PLATE active; positive | Test System: AMES SALMONELLA TYPHIMURIUM, Strain/Indicator: TA100, Metabolic Activation: RAT, LIVER, S-9, Method: PREINCUBATION active; positive
inactive: [1] inactive; negative | [2] inactive; negative | [3] inactive; negative

O=c1cc(-c2ccc(O)cc2)oc2cc(O)cc(O)c12
inactive: Test System: AMES SALMONELLA TYPHIMURIUM, Strain/Indicator: TA97, Metabolic Activation: NONE, Method: STANDARD PLATE inactive; negative | Test System: AMES SALMONELLA TYPHIMURIUM, Strain/Indicator: TA97, Metabolic Activation: RAT, LIVER, S-9, AROCLOR 1254, Method: STANDARD PLATE inactive; negative | [4] inactive; negative | [5] inactive; negative | [3] inactive; negative | [6] inactive; negative | Test System: AMES SALMONELLA TYPHIMURIUM, Strain/Indicator: TA102, Metabolic Activation: NONE, Method: STANDARD PLATE inactive; negative | Test System: AMES SALMONELLA TYPHIMURIUM, Strain/Indicator: TA102, Metabolic Activation: RAT, LIVER, S-9, AROCLOR 1254, Method: STANDARD PLATE inactive; negative | Test System: AMES SALMONELLA TYPHIMURIUM, Strain/Indicator: TA1535, Metabolic Activation: NONE, Method: STANDARD PLATE inactive; negative | Test System: AMES SALMONELLA TYPHIMURIUM, Strain/Indicator: TA1535, Metabolic Activation: RAT, LIVER, S-9, AROCLOR 1254, Method: STANDARD PLATE inactive; negative | Test System: AMES SALMONELLA TYPHIMURIUM, Strain/Indicator: TA1538, Metabolic Activation: NONE, Method: STANDARD PLATE inactive; negative | Test System: AMES SALMONELLA TYPHIMURIUM, Strain/Indicator: TA1538, Metabolic Activation: RAT, LIVER, S-9, AROCLOR 1254, Method: STANDARD PLATE inactive; negative
active: Test System: Mouse lymphoma, Strain/Indicator: L5178Y (tk+/tk-), Metabolic Activation: None, Method: Suspension/plate active; positive | Test System: Mouse lymphoma, Strain/Indicator: L5178Y (tk+/tk-), Metabolic Activation: Rat, Liver, S-9, Aroclor 1254, Method: Suspension/plate active; positive

O=C(O)CS
inactive: Test System: AMES SALMONELLA TYPHIMURIUM, Strain/Indicator: TA97, Metabolic Activation: HAMSTER, LIVER, S-9, AROCLOR 1254 (10 OR 30%), Method: PREINCUBATION inactive; negative | Test System: AMES SALMONELLA TYPHIMURIUM, Strain/Indicator: TA97, Metabolic Activation: NONE, Method: PREINCUBATION inactive; negative | Test System: AMES SALMONELLA TYPHIMURIUM, Strain/Indicator: TA97, Metabolic Activation: RAT, LIVER, S-9, AROCLOR 1254 (10 OR 30%), Method: PREINCUBATION inactive; negative | Test System: AMES SALMONELLA TYPHIMURIUM, Strain/Indicator: TA98, Metabolic Activation: HAMSTER, LIVER, S-9, AROCLOR 1254 (10%), Method: PREINCUBATION inactive; negative | Test System: AMES SALMONELLA TYPHIMURIUM, Strain/Indicator: TA98, Metabolic Activation: HAMSTER, LIVER, S-9, AROCLOR 1254 (10 OR 30%), Method: PREINCUBATION inactive; negative | [1] inactive; negative | Test System: AMES SALMONELLA TYPHIMURIUM, Strain/Indicator: TA98, Metabolic Activation: RAT, LIVER, S-9, AROCLOR 1254 (10%), Method: PREINCUBATION inactive; negative | Test System: AMES SALMONELLA TYPHIMURIUM, Strain/Indicator: TA98, Metabolic Activation: RAT, LIVER, S-9, AROCLOR 1254 (10 OR 30%), Method: PREINCUBATION inactive; negative | Test System: AMES SALMONELLA TYPHIMURIUM, Strain/Indicator: TA100, Metabolic Activation: HAMSTER, LIVER, S-9, AROCLOR 1254 (10%), Method: PREINCUBATION inactive; negative | Test System: AMES SALMONELLA TYPHIMURIUM, Strain/Indicator: TA100, Metabolic Activation: HAMSTER, LIVER, S-9, AROCLOR 1254 (10 OR 30%), Method: PREINCUBATION inactive; negative | [2] inactive; negative | Test System: AMES SALMONELLA TYPHIMURIUM, Strain/Indicator: TA100, Metabolic Activation: RAT, LIVER, S-9, AROCLOR 1254 (10%), Method: PREINCUBATION inactive; negative | Test System: AMES SALMONELLA TYPHIMURIUM, Strain/Indicator: TA100, Metabolic Activation: RAT, LIVER, S-9, AROCLOR 1254 (10 OR 30%), Method: PREINCUBATION inactive; negative | Test System: AMES SALMONELLA TYPHIMURIUM, Strain/Indicator: TA1535, Metabolic Activation: HAMSTER, LIVER, S-9, AROCLOR 1254 (10%), Method: PREINCUBATION inactive; negative | Test System: AMES SALMONELLA TYPHIMURIUM, Strain/Indicator: TA1535, Metabolic Activation: HAMSTER, LIVER, S-9, AROCLOR 1254 (10 OR 30%), Method: PREINCUBATION inactive; negative | Test System: AMES SALMONELLA TYPHIMURIUM, Strain/Indicator: TA1535, Metabolic Activation: NONE, Method: PREINCUBATION inactive; negative | Test System: AMES SALMONELLA TYPHIMURIUM, Strain/Indicator: TA1535, Metabolic Activation: RAT, LIVER, S-9, AROCLOR 1254 (10%), Method: PREINCUBATION inactive; negative | Test System: AMES SALMONELLA TYPHIMURIUM, Strain/Indicator: TA1535, Metabolic Activation: RAT, LIVER, S-9, AROCLOR 1254 (10 OR 30%), Method: PREINCUBATION inactive; negative | Test System: AMES SALMONELLA TYPHIMURIUM, Strain/Indicator: TA1537, Metabolic Activation: HAMSTER, LIVER, S-9, AROCLOR 1254 (10%), Method: PREINCUBATION inactive; negative | Test System: AMES SALMONELLA TYPHIMURIUM, Strain/Indicator: TA1537, Metabolic Activation: NONE, Method: PREINCUBATION inactive; negative | Test System: AMES SALMONELLA TYPHIMURIUM, Strain/Indicator: TA1537, Metabolic Activation: RAT, LIVER, S-9, AROCLOR 1254 (10%), Method: PREINCUBATION inactive; negative

Cc1cc(O)c2c(c1)C(=O)c1c(c(O)cc(O)c1-c1c(O)cc(O)c3c1C(=O)c1cc(C)cc(O)c1C3=O)C2=O
inactive: [4] inactive; negative | [5] inactive; negative | [3] inactive; negative | [6] inactive; negative | Test System: AMES SALMONELLA TYPHIMURIUM, Strain/Indicator: TA1537, Metabolic Activation: NONE, Method: STANDARD PLATE inactive; negative | Test System: AMES SALMONELLA TYPHIMURIUM, Strain/Indicator: TA1537, Metabolic Activation: RAT, LIVER, S-9, AROCLOR 1254, Method: STANDARD PLATE inactive; negative

[N-]=[N+]=NC[C@H]1O[C@H](O)[C@@H](O)[C@@H](O)[C@@H]1O
active: [3] active; positive
inactive: [4] inactive; negative
